Measured values reported in patent US6107459A, “Technetium-99m labeled peptides for diagnostic imaging” (Diatide, Inc., priority 1995, dated 2000).
Like-named read-outs stand apart in the source and are kept apart here. Where a SMILES comes first, the peptide text is derived from it. Where no end group is shown, it is not given here. The star is where a group is joined. X1 = CC(C)(S)CNCCN(CCCCC(=O)*)CC(C)(C)S

Legend:
[1] = Scintigraphic imaging and biodistribution of Tc-99m labeled peptides in E. coli-infected rabbits; assay type: in vivo, New Zealand white rabbits; conditions: rabbit, in vivo, iv
Procedure: (§1) After 24 h, the animals were sedated by i.m. injection of ketamine and xylazine, and then injected i.v. with Tc-99m labeled peptide (≤150 μg, 2-10 mCi). The animals were positioned supine in the field of view of a gamma camera (LEAP collimator/photopeaked for Tc-99m) and imaged over the first hour post-injection, and then at approximately 1 h intervals over the next three hours post injection. Animals were allowed to recover between image acquisitions and re-anesthetized as needed.
(§2) Upon completion of the final imaging, each animal was sacrificed by overdose of phenobarbital i.v. and dissected to obtain samples of blood and of infected and control muscle tissue. The tissue samples were weighed, and along with a standard amount of the injected dose, were counted using a gamma counter, and the percent injected dose (per gram of tissue) remaining in the tissues was determined. Ratios of percent of injected dose per gram of infected versus non-infected muscle tissue, and of infected muscle tissue versus blood, were calculated for each peptide. Scintiphotos of whole body and leg images of a rabbit injected with a Tc-99m labeled reagent of the invention, having the formula

[2] = tested on: sites of infection (E. coli, left calf muscle); test: as above; assay type: in vivo, New Zealand white rabbits; conditions: for Ratio of Infected/Blood / Ratio of Infected/Control: ratio of % ID/g; for Ratio of Infected/Blood: infected muscle tissue versus blood; for Ratio of Infected/Control: infected versus non-infected muscle tissue; for Infected Muscle (% ID/g): Tc-99m labeled peptide i.v. (≤150 μg, 2-10 mCi), 24 h after i.m. E. coli inoculation, tissue taken after final imaging, percent injected dose per gram tissue; for Blood (% ID/g) / Control Muscle (% ID/g): rabbit, in vivo, iv
Procedure: as §1, §2

| Compound | tissue uptake ([1]; Blood (% ID/g)) | tissue uptake ([1]; Control Muscle (% ID/g)) | tissue uptake ([1]; Tc-99m labeled peptide i.v. (≤150 μg, 2-10 mCi), 24 h after i.m. E. coli inoculation, tissue taken after final imaging, percent injected dose per gram tissue, read-out: Infected Muscle (% ID/g)) | Ratio of Infected/Blood [2] | Ratio of Infected/Control [2] | Infected Muscle (% ID/g) [2] | Blood (% ID/g) [2] | Control Muscle (% ID/g) [2] | Scintigraphic images (FIG. 1): localization of radioactivity, infected leg versus contralateral leg ([2]; gamma camera, whole body and leg images of a rabbit injected with the Tc-99m labeled reagent) |
| --- | --- | --- | --- | --- | --- | --- | --- | --- | --- |
| CC[C@H](C)[C@H](NC(=O)[C@H](CCCCN)NC(=O)[C@H](CCCCN)NC(=O)[C@H](Cc1ccc(O)cc1)NC(=O)[C@H](CC(C)C)NC(=O)[C@@H]1CCCN1C(=O)CNC(=O)CNC(=O)CCCCN(CCNCC(C)(C)S)CC(C)(C)S)C(=O)N[C@H](C(=O)N[C@@H](CCCCN)C(=O)N[C@@H](CCCCN)C(=O)N[C@@H](CC(C)C)C(=O)N[C@@H](CC(C)C)C(=O)N[C@@H](CCC(=O)O)C(=O)N[C@@H](CO)C(=O)O)[C@@H](C)CC [[BAT].GGPLYKKIIKKLLES] (X1-GGPLYKKIIKKLLES-OH; N-terminus and C-terminus assumed) | 0.004 %ID/g | 0.0003 %ID/g | 0.0021 %ID/g | 0.50 | 7.00 |  |  |  |  |
| (Ac.CCAcm GCAcm PLYKKIIKKLLES)2 BSME: PF4-derived peptide dimer linked by bis-succinimidylmethylether, Cys(Acm)-Gly-Cys(Acm) Tc-99m binding moiety |  |  |  | 0.84 | 7.45 | 0.0082 % ID/g | 0.010 % ID/g | 0.0011 % ID/g |  |
| Ac.CGGGPLYKKIIKKLLES: Tc-99m labeled platelet factor 4-derived peptide reagent (Ac-CGGGPLYKKIIKKLLES; also: Tc-99m labeled) |  |  |  | 0.74 | 4.70 | 0.0235 % ID/g | 0.032 % ID/g | 0.0050 % ID/g |  |
| Ac.KKKKKCAcm GCAcm GGPLYKKIIKKLLES: Tc-99m labeled platelet factor 4-derived peptide reagent |  |  |  | 0.93 | 5.60 | 0.0061 % ID/g | 0.006 % ID/g | 0.0019 % ID/g | much greater extent of localization of radioactivity in the leg bearing the experimentallly-infected site compared to the non-infected contralateral leg |
